Laboratory results reported in patent publication US10231954B2, “Neurodegenerative therapies” (LYTIX BIOPHARMA AS, priority 2014, dated 2019).
Read-outs that look alike come from different tables or passages of the source.

Experiments:
Assay type in all cases: biochemical
[1] = molecular target: CK1γ2 (Homo sapiens, UniProt P78368); test: Kinase profiling CK1γ2; conditions: for remaining activity at 100 µM: read-out: residual kinase activity, CK1γ2
Excerpt: (§1) Any value less that 25 is considered to be highly significant inhibition.

[2] = molecular target: DAPK1 (Homo sapiens, UniProt P53355); test: Kinase profiling DAPK1; conditions: for remaining activity at 100 µM: read-out: residual kinase activity, DAPK1
Excerpt: as §1

[3] = molecular target: T1, ASK1 (Homo sapiens, UniProt Q99683); test: Kinase profiling ASK1; conditions: for remaining activity at 100 µM: read-out: residual kinase activity, ASK1
T1 sequence (Q99683 1-1374): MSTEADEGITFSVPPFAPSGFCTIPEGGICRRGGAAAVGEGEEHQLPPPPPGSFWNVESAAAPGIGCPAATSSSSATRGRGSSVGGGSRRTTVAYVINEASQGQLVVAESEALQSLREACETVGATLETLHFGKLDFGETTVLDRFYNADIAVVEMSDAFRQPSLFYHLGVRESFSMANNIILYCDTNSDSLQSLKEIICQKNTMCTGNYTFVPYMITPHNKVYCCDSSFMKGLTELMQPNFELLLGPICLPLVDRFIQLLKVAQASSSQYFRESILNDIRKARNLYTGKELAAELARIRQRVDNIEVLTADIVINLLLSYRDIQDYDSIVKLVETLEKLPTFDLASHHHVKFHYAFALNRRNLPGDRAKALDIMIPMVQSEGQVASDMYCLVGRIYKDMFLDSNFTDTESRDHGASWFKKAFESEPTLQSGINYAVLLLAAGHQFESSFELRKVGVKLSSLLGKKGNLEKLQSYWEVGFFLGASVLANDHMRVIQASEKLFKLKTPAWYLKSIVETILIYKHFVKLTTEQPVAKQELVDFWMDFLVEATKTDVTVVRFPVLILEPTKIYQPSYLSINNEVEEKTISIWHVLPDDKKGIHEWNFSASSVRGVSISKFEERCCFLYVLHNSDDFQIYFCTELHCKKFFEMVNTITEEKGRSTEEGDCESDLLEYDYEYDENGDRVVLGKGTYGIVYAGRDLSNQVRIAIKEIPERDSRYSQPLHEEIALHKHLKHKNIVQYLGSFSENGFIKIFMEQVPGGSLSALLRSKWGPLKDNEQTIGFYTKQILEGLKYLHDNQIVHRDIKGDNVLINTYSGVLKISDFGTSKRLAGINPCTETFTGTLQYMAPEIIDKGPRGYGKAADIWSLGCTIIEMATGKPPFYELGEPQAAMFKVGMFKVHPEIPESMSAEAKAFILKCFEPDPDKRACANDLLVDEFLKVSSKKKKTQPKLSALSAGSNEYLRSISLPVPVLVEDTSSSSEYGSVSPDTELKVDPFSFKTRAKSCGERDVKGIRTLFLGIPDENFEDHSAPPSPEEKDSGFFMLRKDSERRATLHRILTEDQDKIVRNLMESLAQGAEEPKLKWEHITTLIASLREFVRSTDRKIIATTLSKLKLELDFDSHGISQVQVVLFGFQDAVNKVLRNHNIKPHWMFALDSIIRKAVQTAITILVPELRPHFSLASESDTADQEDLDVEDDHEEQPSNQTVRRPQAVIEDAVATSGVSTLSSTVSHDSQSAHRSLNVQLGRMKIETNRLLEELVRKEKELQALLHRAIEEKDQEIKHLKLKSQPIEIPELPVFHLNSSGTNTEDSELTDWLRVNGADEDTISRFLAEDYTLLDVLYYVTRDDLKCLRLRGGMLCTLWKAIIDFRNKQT
Excerpt: as §1

[4] = molecular target: MLK1 (Homo sapiens, UniProt P80192); test: Kinase profiling MLK1; conditions: for remaining activity at 100 µM: read-out: residual kinase activity, MLK1
Excerpt: as §1

[5] = test system: PHK; test: Kinase profiling PHK
Excerpt: as §1

[6] = molecular target: IRAK1 (Homo sapiens, UniProt P51617); test: Kinase profiling IRAK1; conditions: for remaining activity at 100 µM: read-out: residual kinase activity, IRAK1
Excerpt: as §1

[7] = molecular target: T2, MAP4K3 (Homo sapiens, UniProt Q8IVH8); test: Kinase profiling MAP4K3; conditions: for remaining activity at 100 µM: read-out: residual kinase activity, MAP4K3
T2 sequence (Q8IVH8 1-894): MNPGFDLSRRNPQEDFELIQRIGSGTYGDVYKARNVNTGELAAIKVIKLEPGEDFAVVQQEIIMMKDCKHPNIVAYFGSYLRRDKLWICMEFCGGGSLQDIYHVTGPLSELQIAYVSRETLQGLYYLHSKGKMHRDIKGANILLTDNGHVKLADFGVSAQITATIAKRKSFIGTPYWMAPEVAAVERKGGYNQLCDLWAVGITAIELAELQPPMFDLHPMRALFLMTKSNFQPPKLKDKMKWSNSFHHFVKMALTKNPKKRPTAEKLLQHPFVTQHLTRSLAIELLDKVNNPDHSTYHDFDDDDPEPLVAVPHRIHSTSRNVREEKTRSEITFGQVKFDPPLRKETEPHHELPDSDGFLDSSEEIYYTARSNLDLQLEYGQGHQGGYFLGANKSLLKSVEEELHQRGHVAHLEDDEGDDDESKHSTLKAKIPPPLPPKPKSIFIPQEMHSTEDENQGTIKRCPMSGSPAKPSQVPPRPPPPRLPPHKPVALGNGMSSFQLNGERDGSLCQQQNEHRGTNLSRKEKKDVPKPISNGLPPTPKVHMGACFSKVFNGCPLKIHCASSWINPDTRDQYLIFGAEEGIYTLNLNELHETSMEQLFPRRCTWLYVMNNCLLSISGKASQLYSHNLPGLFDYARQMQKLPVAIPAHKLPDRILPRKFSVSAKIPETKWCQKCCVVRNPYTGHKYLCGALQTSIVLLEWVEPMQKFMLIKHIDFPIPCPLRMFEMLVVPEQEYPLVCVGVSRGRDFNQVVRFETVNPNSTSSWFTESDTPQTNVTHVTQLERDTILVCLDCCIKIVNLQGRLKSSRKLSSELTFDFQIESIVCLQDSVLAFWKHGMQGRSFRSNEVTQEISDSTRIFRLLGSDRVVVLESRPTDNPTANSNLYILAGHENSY
Excerpt: as §1

[8] = 100 micromolar inhibitor concentration, 100 is no change
[9] = 100 micromolar inhibitor, 100 = no change

Sequence of MLK1 (P80192 whole entry, species assumed): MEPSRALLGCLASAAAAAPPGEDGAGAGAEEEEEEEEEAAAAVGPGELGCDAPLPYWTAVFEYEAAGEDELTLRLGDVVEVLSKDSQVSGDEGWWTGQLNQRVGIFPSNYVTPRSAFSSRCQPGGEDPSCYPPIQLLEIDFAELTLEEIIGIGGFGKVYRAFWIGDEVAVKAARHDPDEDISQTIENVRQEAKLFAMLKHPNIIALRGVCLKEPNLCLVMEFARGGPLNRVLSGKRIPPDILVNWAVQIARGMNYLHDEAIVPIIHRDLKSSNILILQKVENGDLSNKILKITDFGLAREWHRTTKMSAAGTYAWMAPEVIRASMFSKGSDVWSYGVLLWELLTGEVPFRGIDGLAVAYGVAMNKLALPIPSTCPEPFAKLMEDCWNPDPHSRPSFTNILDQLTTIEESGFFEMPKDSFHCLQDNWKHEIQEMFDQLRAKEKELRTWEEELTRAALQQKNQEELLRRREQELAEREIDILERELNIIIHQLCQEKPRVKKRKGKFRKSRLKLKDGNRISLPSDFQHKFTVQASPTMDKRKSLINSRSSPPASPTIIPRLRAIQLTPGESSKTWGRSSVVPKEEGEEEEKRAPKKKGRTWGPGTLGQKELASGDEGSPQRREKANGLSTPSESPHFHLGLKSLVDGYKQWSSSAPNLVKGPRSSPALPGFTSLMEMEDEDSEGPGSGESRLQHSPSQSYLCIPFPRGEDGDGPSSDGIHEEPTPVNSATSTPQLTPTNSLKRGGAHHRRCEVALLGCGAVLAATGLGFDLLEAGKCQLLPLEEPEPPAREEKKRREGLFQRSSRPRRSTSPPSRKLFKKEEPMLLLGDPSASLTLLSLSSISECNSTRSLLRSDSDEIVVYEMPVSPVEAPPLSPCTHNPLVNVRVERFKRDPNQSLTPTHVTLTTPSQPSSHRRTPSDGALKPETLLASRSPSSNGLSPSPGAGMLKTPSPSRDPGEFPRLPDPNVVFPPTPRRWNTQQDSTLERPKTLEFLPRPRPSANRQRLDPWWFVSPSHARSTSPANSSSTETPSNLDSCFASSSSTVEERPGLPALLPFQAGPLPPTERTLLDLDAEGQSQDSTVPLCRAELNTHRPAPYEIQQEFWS
Sequence of CK1γ2 (P78368 whole entry): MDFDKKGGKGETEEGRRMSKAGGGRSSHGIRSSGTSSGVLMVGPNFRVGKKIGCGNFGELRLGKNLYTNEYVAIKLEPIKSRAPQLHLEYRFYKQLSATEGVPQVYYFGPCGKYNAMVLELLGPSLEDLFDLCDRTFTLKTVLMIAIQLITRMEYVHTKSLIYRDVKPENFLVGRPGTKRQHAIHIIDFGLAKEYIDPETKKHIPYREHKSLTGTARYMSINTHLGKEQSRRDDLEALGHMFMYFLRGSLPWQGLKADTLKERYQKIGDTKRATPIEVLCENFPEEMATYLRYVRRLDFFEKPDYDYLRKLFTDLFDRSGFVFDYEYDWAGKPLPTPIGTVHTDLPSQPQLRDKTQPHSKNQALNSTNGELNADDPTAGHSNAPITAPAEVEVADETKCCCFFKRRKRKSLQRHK
Sequence of DAPK1 (P53355 whole entry, species assumed): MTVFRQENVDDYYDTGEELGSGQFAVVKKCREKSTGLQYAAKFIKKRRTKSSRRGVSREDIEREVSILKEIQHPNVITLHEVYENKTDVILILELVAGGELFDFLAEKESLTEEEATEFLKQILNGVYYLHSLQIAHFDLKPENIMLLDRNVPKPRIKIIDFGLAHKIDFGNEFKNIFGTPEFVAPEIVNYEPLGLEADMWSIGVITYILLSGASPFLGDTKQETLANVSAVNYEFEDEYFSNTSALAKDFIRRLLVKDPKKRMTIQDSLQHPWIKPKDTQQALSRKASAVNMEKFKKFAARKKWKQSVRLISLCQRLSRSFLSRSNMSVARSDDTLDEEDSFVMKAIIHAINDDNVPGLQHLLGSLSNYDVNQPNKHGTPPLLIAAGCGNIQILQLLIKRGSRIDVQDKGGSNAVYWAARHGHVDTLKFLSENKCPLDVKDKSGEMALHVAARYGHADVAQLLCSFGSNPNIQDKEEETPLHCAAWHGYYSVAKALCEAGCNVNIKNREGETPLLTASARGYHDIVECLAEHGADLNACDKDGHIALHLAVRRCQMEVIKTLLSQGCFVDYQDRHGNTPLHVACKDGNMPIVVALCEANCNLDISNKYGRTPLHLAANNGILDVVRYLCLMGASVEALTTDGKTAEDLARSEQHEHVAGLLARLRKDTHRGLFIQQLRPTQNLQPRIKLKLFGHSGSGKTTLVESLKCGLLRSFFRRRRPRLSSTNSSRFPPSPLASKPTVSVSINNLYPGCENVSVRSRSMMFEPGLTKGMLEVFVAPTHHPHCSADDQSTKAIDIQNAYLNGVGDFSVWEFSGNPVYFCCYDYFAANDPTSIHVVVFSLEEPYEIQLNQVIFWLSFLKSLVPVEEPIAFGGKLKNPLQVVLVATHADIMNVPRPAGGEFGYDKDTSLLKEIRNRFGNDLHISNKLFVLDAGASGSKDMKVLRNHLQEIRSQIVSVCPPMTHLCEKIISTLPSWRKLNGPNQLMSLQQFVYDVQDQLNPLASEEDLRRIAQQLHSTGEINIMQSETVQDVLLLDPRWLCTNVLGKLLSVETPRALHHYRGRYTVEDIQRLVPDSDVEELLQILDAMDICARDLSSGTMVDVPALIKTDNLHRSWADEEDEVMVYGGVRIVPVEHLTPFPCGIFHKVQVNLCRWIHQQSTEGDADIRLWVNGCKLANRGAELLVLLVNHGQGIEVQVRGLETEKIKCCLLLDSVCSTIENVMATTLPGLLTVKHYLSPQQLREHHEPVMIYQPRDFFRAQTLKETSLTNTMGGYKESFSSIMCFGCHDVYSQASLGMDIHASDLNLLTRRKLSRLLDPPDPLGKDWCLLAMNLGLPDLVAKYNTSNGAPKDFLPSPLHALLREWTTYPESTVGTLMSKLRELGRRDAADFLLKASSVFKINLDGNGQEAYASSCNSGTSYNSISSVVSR
Sequence of IRAK1 (P51617 whole entry, species assumed): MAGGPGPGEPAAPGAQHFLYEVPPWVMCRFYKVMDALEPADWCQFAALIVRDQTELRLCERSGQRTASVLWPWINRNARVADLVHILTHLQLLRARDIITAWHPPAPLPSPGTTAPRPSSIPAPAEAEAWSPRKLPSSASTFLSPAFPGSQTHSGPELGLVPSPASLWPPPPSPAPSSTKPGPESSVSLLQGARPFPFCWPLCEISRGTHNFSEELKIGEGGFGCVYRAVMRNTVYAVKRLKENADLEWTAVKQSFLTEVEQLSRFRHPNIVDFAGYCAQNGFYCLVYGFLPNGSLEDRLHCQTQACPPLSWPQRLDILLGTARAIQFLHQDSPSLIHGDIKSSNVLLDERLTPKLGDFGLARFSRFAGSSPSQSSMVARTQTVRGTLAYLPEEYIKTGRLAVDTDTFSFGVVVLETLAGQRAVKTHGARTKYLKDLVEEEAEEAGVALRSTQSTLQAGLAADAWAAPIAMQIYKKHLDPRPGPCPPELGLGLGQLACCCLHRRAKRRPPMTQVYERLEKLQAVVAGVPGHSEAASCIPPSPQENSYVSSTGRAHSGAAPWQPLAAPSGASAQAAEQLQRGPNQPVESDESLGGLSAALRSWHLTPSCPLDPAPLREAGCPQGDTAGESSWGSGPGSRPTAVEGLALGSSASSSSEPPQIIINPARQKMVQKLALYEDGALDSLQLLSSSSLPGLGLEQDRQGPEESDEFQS

With `CC(=O)Nc1nc2cc(O)ccc2s1` [Compound 01-66, N-(5-hydroxybenzo[d]thiazol-2-yl)acetamide] the remaining activity at 100 µM [1] was 6%, the remaining activity at 100 µM [2] was 44% and the remaining activity at 100 µM [3] was 70%. For the same compound, the remaining activity at 100 µM [4] was 39%, the “residual kinase activity, PHK” value [5, 8] was 49 and the remaining activity at 100 µM [6] was 29%.

`CC(=O)Nc1nc2ccc(O)cc2s1` [Compound 01-71] gave a remaining activity at 100 µM [1, 8] of 10%, a remaining activity at 100 µM [2, 8] of 21% and a remaining activity at 100 µM [3, 8] of 53%. The remaining activity at 100 µM [4, 8] was 11%, the “residual kinase activity, PHK” value [5, 8] was 47 and the remaining activity at 100 µM [6, 8] was 26%.

With `CC(=O)Nc1nc2ccc(C(F)(F)F)cc2s1` [Compound 01-90] the remaining activity at 100 µM [1, 8] was 59%, the remaining activity at 100 µM [2, 8] was 85% and the remaining activity at 100 µM [3, 8] was 35%. The remaining activity at 100 µM [7, 8] was 65%, the remaining activity at 100 µM [4, 8] was 39% and the “residual kinase activity, PHK” value [5, 8] was 52. For the same compound, the remaining activity at 100 µM [6, 8] was 43%.

`CC(=O)Nc1nc2ccc(C#N)cc2s1` [Compound 01-94] showed a remaining activity at 100 µM [1, 8] of 18%, a remaining activity at 100 µM [2, 8] of 41% and a remaining activity at 100 µM [3, 8] of 18%. The remaining activity at 100 µM [7, 8] was 52%, the remaining activity at 100 µM [4, 8] was 34% and the “residual kinase activity, PHK” value [5, 8] was 63. The remaining activity at 100 µM [6, 8] was 11%.

In the case of `CC(=O)Nc1cccc(NC(=O)c2nc3ccc(O)cc3s2)c1` [Compound 03-07, N-(3-acetamidophenyl)-6-hydroxybenzo[d]thiazole-2-carboxamide], the remaining activity at 100 µM [1, 9] is reported as 77%, the remaining activity at 100 µM [2, 9] is reported as 28% and the remaining activity at 100 µM [3, 9] is reported as 86%. For the same compound, the remaining activity at 100 µM [7, 9] was 63%, the remaining activity at 100 µM [4, 9] was 26% and the “residual kinase activity, PHK” value [5, 9] was 55. The remaining activity at 100 µM [6, 9] was 49%.

In the case of `O=C(Nc1nc2cc(O)ccc2s1)c1ccncc1` [Compound 03-11], the “residual kinase activity, CK1γ2” value [1, 8] is reported as 81, the “residual kinase activity, DAPK1” value [2, 8] is reported as 62 and the “residual kinase activity, ASK1” value [3, 8] is reported as 79. For the same compound, the “residual kinase activity, MAP4K3” value [7, 8] was 73, the “residual kinase activity, MLK1” value [4, 8] was 71 and the “residual kinase activity, PHK” value [5, 8] was 63. For the same compound, the “residual kinase activity, IRAK1” value [6, 8] was 68.

For `O=C(Nc1nc2ccc(O)cc2s1)c1ccccn1` [Compound 03-12], the “residual kinase activity, CK1γ2” value [1, 8] was 57, the “residual kinase activity, DAPK1” value [2, 8] was 25 and the “residual kinase activity, ASK1” value [3, 8] was 70. For the same compound, the “residual kinase activity, MAP4K3” value [7, 8] was 54, the “residual kinase activity, MLK1” value [4, 8] was 31 and the “residual kinase activity, PHK” value [5, 8] was 37. The “residual kinase activity, IRAK1” value [6, 8] was 37.

In the case of `O=C(Nc1nc2cc(O)ccc2s1)c1ccccn1` [Compound 03-13], the “residual kinase activity, CK1γ2” value [1, 8] is reported as 83, the “residual kinase activity, DAPK1” value [2, 8] is reported as 58 and the “residual kinase activity, ASK1” value [3, 8] is reported as 88. For the same compound, the “residual kinase activity, MAP4K3” value [7, 8] was 67, the “residual kinase activity, MLK1” value [4, 8] was 68 and the “residual kinase activity, PHK” value [5, 8] was 28. The “residual kinase activity, IRAK1” value [6, 8] was 38.

Compound `COc1ccc2sc(NC(C)=O)nc2c1` [Compound 03-21] has a remaining activity at 100 µM [1, 8] of 6%, a remaining activity at 100 µM [2, 8] of 79% and a remaining activity at 100 µM [3, 8] of 97%. The remaining activity at 100 µM [7, 8] was 75%, the remaining activity at 100 µM [4, 8] was 84% and the “residual kinase activity, PHK” value [5, 8] was 111. The remaining activity at 100 µM [6, 8] was 45%.

With `CC(=O)Nc1nc2ccccc2s1` [Compound 03-32] the “residual kinase activity, CK1γ2” value [1, 8] was 41, the “residual kinase activity, DAPK1” value [2, 8] was 89 and the “residual kinase activity, ASK1” value [3, 8] was 66. The “residual kinase activity, MAP4K3” value [7, 8] was 90, the “residual kinase activity, MLK1” value [4, 8] was 72 and the “residual kinase activity, PHK” value [5, 8] was 94. For the same compound, the “residual kinase activity, IRAK1” value [6, 8] was 65.

In the case of `O=C(Nc1nc2cc(O)ccc2s1)c1cccnc1` [Compound 03-33], the “residual kinase activity, CK1γ2” value [1, 8] is reported as 25, the “residual kinase activity, DAPK1” value [2, 8] is reported as 82 and the “residual kinase activity, ASK1” value [3, 8] is reported as 51. For the same compound, the “residual kinase activity, MAP4K3” value [7, 8] was 69, the “residual kinase activity, MLK1” value [4, 8] was 61 and the “residual kinase activity, PHK” value [5, 8] was 74. The “residual kinase activity, IRAK1” value [6, 8] was 57.

With `O=C(Nc1nc2ccc(O)cc2s1)c1ccccc1` [Compound 03-60] the “residual kinase activity, CK1γ2” value [1, 8] was 3, the “residual kinase activity, DAPK1” value [2, 8] was 19 and the “residual kinase activity, ASK1” value [3, 8] was 12. The “residual kinase activity, MAP4K3” value [7, 8] was 56, the “residual kinase activity, MLK1” value [4, 8] was 5 and the “residual kinase activity, PHK” value [5, 8] was 33. For the same compound, the “residual kinase activity, IRAK1” value [6, 8] was 26.
